Test [1] has as its target His-tagged KRAS G12D protein (Homo sapiens (Human), UniProt P01116, G12D). Description: KRAS G12D TR-FRET Assay. Format: binding. The note with it: biotinylated KRPep-2d, 10 μM GDP. The protocol: Compounds of interest were prepared in a dose-response titration in DMSO, and 80 nL were added via Labcyte Echo to each well of a 384-well plate (Perkin Elmer 6008280). The His-tagged KRAS G12D protein (Amgen) was diluted to 20 nM in Assay Buffer (20 mM HEPES, pH 7.4, 10 mM MgCl2, 50 mM NaCl, 0.1% BSA, 0.01% Tween-20, 10 μM GDP) and 2 μL was added to the appropriate wells of the 384-well plate. The plate was incubated for 30 minutes at rt. Biotinylated KRPep-2d substrate (Amgen) was diluted to […] in Assay Buffer and 2 AL was added to all wells and incubated for 1 hour at room temperature. Detection Reagent (0.4 nM LANCE Eu-W1024 Anti-6×His (Perkin Elmer AD0401), 5 nM streptavidin-d2 (Cisbio 610SADLA)) was prepared in Assay Buffer, then 4 AL was added to the plate and incubated for 1 h at rt. Plates were read using PerkinElmer En Vision (ex: 320 nm, em1: 665 nm, em2: 615 nm) and em1/em2 data was used to generate curve fits using a 4-parameter logistic model to calculate IC50 values.
(In general: In TR-FRET formats the signal depends on donor and acceptor labels being close together.)

The target in test [2] is GDP-bound KRAS protein (aa 1-169), G12D and C118A; SOS-mediated nucleotide exchange (Homo sapiens (Human), UniProt P01116, C118A/G12D). Description: KRAS G12D Coupled Nucleotide Exchange Assay. Format: biochemical. The note with it: 2 h compound pre-incubation, GTP, cRAF AlphaScreen. Here is the method: Purified GDP-bound KRAS protein (aa 1-169), containing both G12D and C118A amino acid substitutions and an N-terminal His-tag, was pre-incubated in assay buffer (25 mM HEPES pH 7.4, 10 mM MgCl2, and 0.01% Triton X-100) with a compound dose-response titration for 2 h. Following compound pre-incubation, purified SOS protein (aa 564-1049) and GTP (Roche 10106399001) were added to the assay wells and incubated for an additional 30 min. […] The assay plates were then read on a PerkinElmer En Vision Multilabel Reader, using AlphaScreen® technology, and data were analyzed using a 4-parameter logistic model to calculate IC50 values.
In general terms: Alpha assays give light when donor and acceptor beads are brought close together.

Test [3] relates to Phosphorylation of ERK1/2 in AsPC-1 cells. Description: Phospho-ERK1/2 MSD Assay. Format: cell-based. The protocol: AsPC-1 (ATCC® CRL-1682TM) cells were cultured in RPMI 1640 Medium (ThermoFisher Scientific 11875093) containing 10% fetal bovine serum (ThermoFisher Scientific 16000044) and 1× penicillin-streptomycin-glutamine (ThermoFisher Scientific 10378016). Sixteen hours prior to compound treatment, AsPC-1 cells were seeded in 96-well cell culture plates at a density of 25,000 cells/well and incubated at 37° C., 5% CO2. A compound dose-response titration was diluted in growth media, added to appropriate wells of a cell culture plate, and then incubated at 37° C., 5% CO2 for 2 hours. Following compound treatment, cells were washed with ice-cold Dulbecco's phosphate-buffered saline, no Ca^2+ or Mg^2+ (ThermoFisher Scientific 14190144), and then lysed in RIPA buffer (50 mM Tris-HCl pH 7.5, 1% Igepal, 0.5% sodium deoxycholate, 150 mM NaCl, and 0.5% sodium dodecyl sulfate) containing protease inhibitors (Roche 4693132001) and phosphatase inhibitors (Roche 4906837001). Phosphorylation of ERK1/2 in compound-treated lysates was assayed using Phospho-ERK1/2 Whole Cell Lysate kits (Meso Scale Discovery K151DWD) according to the manufacturer's protocol. Assay plates were read on a Meso Scale Discovery Sector Imager 6000, and data were analyzed using a 4-parameter logistic model to calculate IC50 values.

[4] abbreviates: Homo sapiens, ASPC1, 2 h, read-out: 2 h p-ERK (AsPC-1 cells), IC50 (μM), AsPC-1 cells, 2 h compound treatment.

The structures appear in SMILES notation. Read-outs that look alike come from different tables or passages of the source.

Chain of His-tagged KRAS G12D protein (P01116-2 other isoform, or with tags, fused parts or gaps G12D): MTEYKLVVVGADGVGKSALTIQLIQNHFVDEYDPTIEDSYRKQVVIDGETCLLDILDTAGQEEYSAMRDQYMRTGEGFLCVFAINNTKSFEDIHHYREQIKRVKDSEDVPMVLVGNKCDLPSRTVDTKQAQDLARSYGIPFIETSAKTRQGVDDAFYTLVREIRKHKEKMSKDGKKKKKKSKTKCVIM
Chain of GDP-bound KRAS protein (aa 1-169), G12D and C118A; SOS-mediated nucleotide exchange (P01116 other isoform, or with tags, fused parts or gaps G12D/C118A): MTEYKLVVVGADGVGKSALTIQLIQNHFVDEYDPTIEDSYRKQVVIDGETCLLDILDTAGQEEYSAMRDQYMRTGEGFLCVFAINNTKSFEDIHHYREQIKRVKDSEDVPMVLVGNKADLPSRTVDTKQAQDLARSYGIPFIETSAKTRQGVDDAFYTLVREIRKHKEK

`C[C@@]1(CO)CCCN(c2nc(OC[C@@]34CCCN3C[C@H](F)C4)nc3c(F)c(-c4ccc(F)c5sc(N)c(C#N)c45)c(Cl)cc23)C1` [Example 43, 2-Amino-4-(6-chloro-8-fluoro-2-(((2R,7aS)-2-fluorotetrahydro-1H-pyrrolizin-7a(5H)-yl)methoxy)-4-((R)-3-(hydroxymethyl)-3-methylpiperidin-1-yl)quinazolin-7-yl)-7-fluorobenzo[b] thiophene-3-carbonitrile]: the half-inhibitory concentration (IC50) (in general, the concentration that gives 50% inhibition) in test [1] was found to be 15 nM; in test [2], 18 nM; in test [3] (setting [4]) it was 1.16 µM.

Consider `N#Cc1c(N)sc2c(F)ccc(-c3c(Cl)cc4c(N5CCCCCCC5)nc(OC[C@@]56CCCN5C[C@H](F)C6)nc4c3F)c12` [Example 31, 2-Amino-4-(4-(azocan-1-yl)-6-chloro-8-fluoro-2-(((2R,7aS)-2-fluorotetrahydro-1H-pyrrolizin-7a(5H)-yl)methoxy)quinazolin-7-yl)-7-fluorobenzo[b] thiophene-3-carbonitrile], for which the values for the IC50 in test [1], in test [2] and in test [3] (setting [4]) were 1 nM, 1 nM and 0.187 µM, respectively.

Regarding `CC1(O)COCCN(c2nc(OCC34CCCN3CC(F)(F)C4)nc3c(F)c(-c4ccc(F)c5sc(N)c(C#N)c45)c(Cl)cc23)C1` (single isomer, unassigned) [Example 60, 2-Amino-4-(6-chloro-2-((2,2-difluorotetrahydro-1H-pyrrolizin-7a(5H)-yl)methoxy)-8-fluoro-4-(6-hydroxy-6-methyl-1,4-oxazepan-4-yl)quinazolin-7-yl)-7-fluorobenzo[b] thiophene-3-carbonitrile], the half-inhibitory concentration (IC50) in test [1] amounted to 8 nM; in test [2] it was 7 nM; in test [3] (setting [4]) it was 0.292 µM.

Turning to `CCC1(O)CCCN(c2nc(OC[C@@]34CCCN3C[C@H](F)C4)nc3c(F)c(-c4ccc(F)c5sc(N)c(C#N)c45)c(Cl)cc23)C1` (stereo partly drawn) [Example 37, 2-Amino-4-(6-chloro-4-(3-ethyl-3-hydroxypiperidin-1-yl)-8-fluoro-2-(((2R,7aS)-2-fluorotetrahydro-1H-pyrrolizin-7a(5H)-yl)methoxy)quinazolin-7-yl)-7-fluorobenzo[b] thiophone-3-carbonitrile], the IC50 in test [1] was found to be 8 nM; in test [2], 10 nM; in test [3] (setting [4]) it was 0.859 µM.

Regarding `N#Cc1c(N)sc2c(F)ccc(-c3c(Cl)cc4c(N5CCCOCCC5)nc(OC[C@@]56CCCN5C[C@H](F)C6)nc4c3F)c12` (single isomer, unassigned) [Example 18], the 50% inhibitory concentration (IC50) in test [1] stood at 2 nM; in test [2] it was 2 nM; in test [3] (setting [4]) it was 0.013 µM.

For the molecule `CC1(C(N)=O)CCCN(c2nc(OC[C@@]34CCCN3C[C@H](F)C4)nc3c(F)c(-c4ccc(F)c5sc(N)c(C#N)c45)c(Cl)cc23)C1` (stereo partly drawn) [Example 11, 1-(7-(2-Amino-3-cyano-7-fluorobenzo[b]thiophen-4-yl)-6-chloro-8-fluoro-2-(((2R,7aS)-2-fluorotetrahydro-1H-pyrrolizin1 7a(5H)-yl)methoxy)quinazolin-4-yl)-3-methylpiperidine-3-carboxamide], the IC50 was determined as 7 nM in test [1], 7 nM in test [2] and 0.677 µM in test [3] (setting [4]).

On to `N#Cc1c(N)sc2c(F)ccc(-c3c(Cl)cc4c(N5CCC[C@@H](O)C5)nc(OC[C@@]56CCCN5C[C@H](F)C6)nc4c3F)c12` [Example 35, 2-Amino-4-(6-chloro-8-fluoro-2-(((2R,7aS)-2-fluorotetrahydro-1H-pyrrolizin-7a(5H)-yl)methoxy)-4-((R)-3-hydroxypiperidin-1-yl)quinazolin-7-yl)-7-fluorobenzo[b] thiophene-3-carbonitrile], for which the concentration for half-maximal inhibition (IC50) in test [1] turned out to be 4 nM; in test [2], 5 nM; in test [3] (setting [4]), 0.199 µM.

Turning to `CC1(O)COCCN(c2nc(OC[C@@]34CCCN3C[C@H](F)C4)nc3c(F)c(-c4ccc(F)c5sc(N)c(C#N)c45)c(Cl)cc23)C1` (single isomer, unassigned) [Example 24], the IC50 in test [1] came out at 3 nM; in test [2], 2 nM; in test [3] (read-out: 2 h p-ERK (AsPC-1 cells), IC50, AsPC-1 cells, 2 h compound treatment), 0.185 µM.

These data come from US20250163064A1, “QUINAZOLINE COMPOUNDS AND USES THEREOF AS INHIBITORS OF MUTANT KRAS PROTEINS” (AMGEN INC., priority 2022, published 2025).
